One data set relates to PHF20 protein. In words: PHF20 protein amounts after MG132 treatment. It counts as cell-based. The settings on record: even when both Trim26 and Jmjd3 were overexpressed. The source says: (§1) Jmjd3-Trim26 is responsible for the enhanced reprogramming efficiency observed in Jmjd3-1-MEFs or in Dox-treated Tet-O-PHF20 MEFs.
Another data set deals with iPSC colony formation. Description: iPSC colony formation and cell death after MG132 treatment. It counts as cell-based. As for the experimental part: Mouse iPSCs were generated as previously described (Takahashi et al., 2007a) with some minor modifications. Briefly, MEFs (1-8×10^4/well) were seeded on irradiated-MEFs in a 6-well plate. On the next day, the cells were transduced with an equal amount of lentiviruses expressing the four factors and rtTA. The following day, transduced-MEFs were cultured with mESC medium containing 2 μg/mL Dox for 14 days. Tet-O-4F MEFs were used to generate iPSCs by treating MEFs with Dox in mESC medium. The efficiency of iPSC formation as calculated based on the number of AP positive iPSC colonies and the initial cell number of seeded MEFs. Human iPSCs were generated as previously described (Park et al., 2008).
as §1

Data set [1] concerns PHF20938-946-specific CD8+ T cells. In words: Recognition of peptide-pulsed T2 cells by PHF20-specific T cells (IFN-γ release). It counts as cell-based, human. The settings on record: T cells generated from PBMCs of HLA-A2+ healthy donors; FIG. 9A. The method, then:
(FIG. 9A) PHF20938-946-specific CD8^+ T cells were generated from normal donor PBMCs after in vitro stimulation with PHF20 peptides, and used to determine the recognition of T2 cells loaded with different concentrations of PHF20938-946, peptide, or a control peptide as a negative control. (FIG. 9B) PHF20938-946-specific T cells were cultured alone in medium or co-incubated with HLA-A2^+ PHF20^+ (MCF-7) or HLA-A2^− PHF20^+ (DU4475, MDA-MB-361) breast cancer cell lines. A normal breast epithelial cell line MCF-10A is included as a control. T cell activity was determined by measuring cytokine (IFN-γ) release. (FIG. 9C) PHF20938-946-specific CD8^+ T cells were tested for cytotoxicity against MCF-7 by the LDH assay. HLA-A2 negative PHF20^+ PC3 cells were used as a negative control in the LDH assay. Data are plotted as means t SD. Results are representative of three independent experiments. *P<0.05, **P<0.01, ***P<0.001 versus controls.
Furthermore, PHF20-specific T cells could lyse HLA-A2^+ and PHF20^+ MCF-7 breast cancer cells (FIG. 9C).

Residues, ends and D or L forms follow the SMILES beside them. *: point of attachment. Cbz = O=C(OCc1ccccc1)*

As to `CC(C)C[C@@H](C=O)NC(=O)[C@H](CC(C)C)NC(=O)[C@H](CC(C)C)NC(=O)OCc1ccccc1` [MG132] (Cbz-Leu-Leu-Leu-aldehyde), the “amounts of PHF20 protein” value with PHF20 protein is recorded as “increased the amounts of PHF20 protein”. The cell death entry in the data set with iPSC colony formation (MG132 treatment during reprogramming) is recorded as “caused cell death”. In the data set with iPSC colony formation (after MG132 treatment), the iPSC colony formation entry is “no iPSC colony formation was observed”.

For WQFNLLTHV (PHFP 2), in data set [1], the “recognition of peptide-pulsed cells by PHF20-specific T cells” value is “capable of recognizing”.

The values above are taken from patent US20160017011A1, “PHF20 AND JMJD3 COMPOSITIONS AND METHODS OF USE IN CANCER IMMUNOTHERAPY” (priority 2013, published 2016).
